Source: PubChem BioAssay AID1438 (Sanford-Burnham Center for Chemical Genomics, 2008)

Target: Runt-related transcription factor 1 (Homo sapiens) + Core-binding factor subunit beta (Homo sapiens) (UniProt Q01196+Q13951)
Test: inhibitors of RUNX1 Runt–CBFb-SMMHC binding, biochemical, TR-FRET (AID 1438)
Conditions: TR-FRET Runt domain–CBFb-SMMHC binding

Sequence of Runt-related transcription factor 1 (Homo sapiens) + Core-binding factor subunit beta (Homo sapiens) (Q01196 whole entry, looked up): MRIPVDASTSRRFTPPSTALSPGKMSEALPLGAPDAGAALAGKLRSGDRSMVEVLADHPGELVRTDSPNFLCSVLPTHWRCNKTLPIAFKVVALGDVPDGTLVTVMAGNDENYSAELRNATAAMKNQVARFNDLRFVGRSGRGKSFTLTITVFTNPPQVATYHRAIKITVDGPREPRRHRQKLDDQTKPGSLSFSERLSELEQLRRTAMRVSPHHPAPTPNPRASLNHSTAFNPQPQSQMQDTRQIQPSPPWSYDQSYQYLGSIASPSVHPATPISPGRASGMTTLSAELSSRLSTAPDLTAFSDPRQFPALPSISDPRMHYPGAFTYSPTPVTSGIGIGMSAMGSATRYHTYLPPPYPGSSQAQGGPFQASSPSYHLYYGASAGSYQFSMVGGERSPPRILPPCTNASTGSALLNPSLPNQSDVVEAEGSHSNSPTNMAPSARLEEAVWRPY
Sequence of Runt-related transcription factor 1 (Homo sapiens) + Core-binding factor subunit beta (Homo sapiens) (Q13951 whole entry, looked up): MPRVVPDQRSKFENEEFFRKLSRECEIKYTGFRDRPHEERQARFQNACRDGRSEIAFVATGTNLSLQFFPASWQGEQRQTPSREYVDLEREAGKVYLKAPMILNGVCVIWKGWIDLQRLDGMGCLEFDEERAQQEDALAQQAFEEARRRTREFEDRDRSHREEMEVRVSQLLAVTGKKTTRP

CN1CCc2cccc3c2[C@@H]1Cc1ccc(O)c(O)c1-3
IC50: 7.12 µM
